Molecules are shown by their SMILES. The source made the active and inactive calls. No stated cut-off is given here; in the data, actives have a measured IC50 and inactives only a lower limit.

In the assay the target is Envelope glycoprotein gp160 (Human immunodeficiency virus 1, UniProt Q6QLK5). Nature of the assay: inhibitors of HIV fusion peptide binding, primary screen, biochemical, uHTS, fluorescence dequenching (AID 1986).
Envelope glycoprotein gp160, sequence (Q6QLK5 whole entry, the tested form may be a part): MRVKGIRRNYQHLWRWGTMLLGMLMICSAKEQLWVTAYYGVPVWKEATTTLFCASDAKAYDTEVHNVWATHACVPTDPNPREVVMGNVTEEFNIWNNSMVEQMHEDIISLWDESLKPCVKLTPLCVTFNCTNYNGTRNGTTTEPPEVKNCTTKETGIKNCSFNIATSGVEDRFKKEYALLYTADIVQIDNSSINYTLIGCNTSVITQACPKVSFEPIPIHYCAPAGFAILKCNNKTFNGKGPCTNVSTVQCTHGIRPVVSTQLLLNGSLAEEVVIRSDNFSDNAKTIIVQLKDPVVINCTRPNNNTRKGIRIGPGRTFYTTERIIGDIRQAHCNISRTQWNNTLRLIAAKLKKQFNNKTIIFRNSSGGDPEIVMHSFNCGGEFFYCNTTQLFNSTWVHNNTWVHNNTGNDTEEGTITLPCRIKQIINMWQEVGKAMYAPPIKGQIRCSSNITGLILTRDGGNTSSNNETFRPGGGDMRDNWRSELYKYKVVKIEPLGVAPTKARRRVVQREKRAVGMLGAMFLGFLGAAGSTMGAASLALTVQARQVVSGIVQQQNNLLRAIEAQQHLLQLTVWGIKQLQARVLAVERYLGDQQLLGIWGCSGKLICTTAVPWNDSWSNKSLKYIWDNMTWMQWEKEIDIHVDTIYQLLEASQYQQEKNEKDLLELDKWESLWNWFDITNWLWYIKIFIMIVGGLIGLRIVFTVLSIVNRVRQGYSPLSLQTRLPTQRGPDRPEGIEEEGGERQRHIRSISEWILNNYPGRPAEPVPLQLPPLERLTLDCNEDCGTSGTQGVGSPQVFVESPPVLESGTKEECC
As a reminder, the IC50 is the concentration at which inhibition is half-maximal. In the case of `Cc1ccc(S(=O)(=O)NC2=NC(=O)/C(=C/c3cc([N+](=O)[O-])ccc3O)S2)cc1`, the IC50 was 13.5 µM (active).
In the case of `O=C(Nc1ccc(Br)cc1C(=O)O)c1ccc2c(c1)C(=O)N(Cc1ccccc1)C2=O`, the IC50 is 13.5 µM (active).
Regarding `CCc1nnc(NS(=O)(=O)c2ccc(N/C=C(\C=O)c3nc4cc(Cl)ccc4o3)cc2)s1`, the IC50 was 19.7 µM (active).
Take `Cc1cc(/C=c2\sc3nc4ccccc4n3c2=O)c(C)n1-c1ccc(C(=O)O)cc1`: the IC50 is 25.8 µM (active).

Values taken from ChEMBL document CHEMBL1201862, “PubChem BioAssay data set” (2004).
